In patent US12723039B2, “Small molecule inhibitors of SLC15A4 with anti-inflammatory activity” (THE SCRIPPS RESEARCH INSTITUTE, priority 2020, dated 2026):

Legend:
[1] = biological target: T1, human SLC15A4 dileucine mutant (L14A, L15A, L318A, V319A) (Homo sapiens, UniProt Q8N697, L14A/L15A/L318A/V319A); experiment: SLC15A4 transport NFκB luciferase reporter assay in A549 cells; format: cell-based; conditions: for suppression of MDP or Tri-DAP induced NFκB luciferase: A549 cells with membrane-trafficked SLC15A4 mutant; for block of MDP transport in a dose-dependent fashion: FIG. 9
T1 construct: expressed in transfected cells
Excerpt: Development of SLC15A4-Transport Luciferase Reporter Assay. […] The precise substrate scope of endolysosomal SLC15A4 is not established. However, several studies have implicated SLC15A4 to be a transporter of the bacterial-derived peptidoglycans, such as MDP and Tri-DAP, which are ligands of the immune sensors NOD1 and NOD2^27-29, 48. Recently, it has been shown that disruption of the dileucine motifs (DE)-XXXL-(L/I) or DXXLL of SLC15A3^49 and SLC15A4^50 can result in successful targeting to the plasma membrane. Considering that NODs signal through the NFκB pathway, we sought to develop an NFκB reporter assay as a strategy to measure SLC15A4 transport in cells.
Briefly, both wildtype (WT) human SLC15A4 and a dileucine mutant (L14A, LISA, L318A, V319A) were cloned in frame with the mCherry using a (GGGGS)3 linker in the pLPC lentiviral backbone. Lentiviral vectors were packaged in psPAX2 and pMD2.G packing plasmids and used to generate stable cell lines expressing either SLC15A4 WT or membrane-trafficked SLC15A4 mutant A549 cells (FIG. 5A). Stable reporter cells were subsequently generated from these SLC15A4 cell lines using the Promega Dual-Luciferase Reporter system (pGLA4.32 [luc2P/NFκB-RE/Hygro]) containing five copies of an NF-κB response element. We confirmed the production of luciferase upon exposure to MDP or Tri-DAP NOD ligands ([…]), which is suppressed when exposed to either triptolide (an NF[…]B inhibitor, FIG. 5C) ML130 (NOD1 inhibitor, not shown) or GSK717 (NOD2 inhibitor, not shown).

CpG (TLR9) = experiment: In vivo model of inflammation: CpG co-injection, serum cytokines; conditions: mice co-injected with compound and CpG (TLR9), single dose, serum after 6 hr
[2] = system: endogenous NOD signaling in mouse macrophages; experiment: Endogenous NOD signaling in mouse macrophages; format: cell-based; conditions: FIG. 11
[3] = system: endogenous NOD signaling in human macrophages; experiment: Endogenous NOD signaling in human macrophages; format: cell-based; conditions: FIG. 11
SLC25A20 = biological target: T2, SLC25A20 (Homo sapiens, UniProt O43772); conditions: previously published work (ref. 46); cited from earlier work
T2 construct: endogenous in cells
T2 sequence (O43772 1-301): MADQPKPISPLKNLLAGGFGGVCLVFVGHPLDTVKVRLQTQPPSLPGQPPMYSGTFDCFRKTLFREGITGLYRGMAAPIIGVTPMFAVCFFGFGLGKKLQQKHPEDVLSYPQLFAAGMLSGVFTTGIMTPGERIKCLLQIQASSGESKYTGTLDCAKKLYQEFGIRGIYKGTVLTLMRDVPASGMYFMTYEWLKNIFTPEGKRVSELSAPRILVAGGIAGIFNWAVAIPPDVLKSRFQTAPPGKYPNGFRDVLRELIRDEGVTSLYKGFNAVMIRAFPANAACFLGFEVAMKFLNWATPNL

T1 sequence (Q8N697 whole entry L14A/L15A/L318A/V319A): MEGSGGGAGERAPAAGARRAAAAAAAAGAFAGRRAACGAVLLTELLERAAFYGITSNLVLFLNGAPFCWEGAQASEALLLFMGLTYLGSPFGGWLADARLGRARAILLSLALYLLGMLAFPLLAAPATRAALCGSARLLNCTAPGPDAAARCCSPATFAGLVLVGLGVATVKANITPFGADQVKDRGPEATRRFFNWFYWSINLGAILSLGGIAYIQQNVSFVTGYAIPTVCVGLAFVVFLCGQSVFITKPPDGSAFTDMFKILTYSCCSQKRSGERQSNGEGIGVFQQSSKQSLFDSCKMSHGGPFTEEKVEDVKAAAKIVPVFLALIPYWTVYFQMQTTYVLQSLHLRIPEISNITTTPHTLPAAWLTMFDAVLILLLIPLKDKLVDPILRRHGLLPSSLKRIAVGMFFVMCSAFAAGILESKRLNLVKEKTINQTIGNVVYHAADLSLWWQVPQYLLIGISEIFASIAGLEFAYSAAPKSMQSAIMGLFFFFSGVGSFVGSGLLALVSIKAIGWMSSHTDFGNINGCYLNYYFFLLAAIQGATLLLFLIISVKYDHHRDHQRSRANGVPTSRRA

block of MDP transport in a dose-dependent fashion [1]	SMILES	in vivo efficacy: serum cytokines after CpG (CpG (TLR9))	other results
inactive controls	CCCC(=O)N(Cc1ccc2[nH]ccc2c1)C1Cc2ccccc2NC1=O (stereo not drawn) [AJ2-18, N-((1H-indol-5-yl)methyl)-N-(2-oxo-1,2,3,4-tetrahydroquinolin-3-yl)butyramide]	–	–
active	Brc1ccc2[nH]cc(CNc3nc4ccccc4[nH]3)c2c1 [AJ2-3A, N-((5-bromo-1H-indol-3-yl)methyl)-1H-benzo[d]imidazol-2-amine]	–	–
active	CCn1c2ccccc2c2cc(CNc3nc4ccccc4n3C)ccc21 [AJ2-30, N-((9-ethyl-9H-carbazol-3-yl)methyl)-1-methyl-1H-benzo[d]imidazol-2-amine]	active	block of endogenous NOD signaling in mouse macrophages [2]: active; block of endogenous NOD signaling in human macrophages [3]: active
inactive controls	CCCC(=O)N(Cc1ccc2[nH]ccc2c1)C1Cc2ccccc2C1 [AJ2-22, N-((1H-indol-5-yl)methyl)-N-(2,3-dihydro-1H-inden-2-yl)butyramide]	inactive control	–

The remaining lines, values behind:

SMILES	block of MDP transport in a dose-dependent fashion [1]	in vivo efficacy: serum cytokines after CpG (CpG (TLR9))	other results
Cc1ccc(S(=O)(=O)n2c(N)nc3ccccc32)cc1 [ML130, reference compound]	–	–	suppression of MDP or Tri-DAP induced NFκB luciferase [1]: suppressed
CC(C)[C@]12O[C@H]1[C@@H]1O[C@]13[C@]1(O[C@H]1C[C@H]1C4=C(CC[C@@]13C)C(=O)OC4)[C@@H]2O [triptolide, reference compound]	–	–	suppression of MDP or Tri-DAP induced NFκB luciferase [1]: suppressed
CCCC(=O)n1c(NCc2c[nH]c3ccc(Br)cc23)nc2ccccc21 [AJ2-3, 1-(2-(((5-bromo-1H-indol-3-yl)methyl)amino)-1H-benzo[d]imidazol-1-yl)butan-1-one]	–	active	–
C#CCCC1(CCC(=O)Nc2ccc3oc(=O)ccc3c2)N=N1 [FFF 3]	–	–	engagement of SLC25A20 (SLC25A20): highly engages
